Experimental data taken from US9457052B2, “Allograft tolerance induction” (The United States of America as Represented by the …, priority 2013, dated 2016).

Test system: C57BL/6 responder splenocytes with irradiated BALB/c stimulatory cells
Assay: Allo-MLR lymphocyte proliferation assay (3H-thymidine) with AMPs
Type: cell-based, mouse
Conditions: 20 μM indomethacin alone
Procedure: FIG. 2. […] (A) Naive C57BL/6 splenocytes (as responders cells) were cultured 1:1 with irradiated (3 Gy) naïve BALB/c stimulatory cells. […] Cell proliferation was analyzed by 3H-thymidine incorporation during the last 18 h of a 5 day culture. Results are expressed as the mean percent alloproliferation inhibition of quadruplicate cultures. Data are representative of two independent experiments. (B) Cytokine analysis of 48 h culture supernatants obtained from mixed lymphocyte reaction assays. Data are presented as means±SD (n=3; P<0.05). (C) Representative flow cytometric analysis of splenic Tregs following 5 days of alto-MLR culture in the absence and presence of AMP co-culture. […] Quadrants are set according to isotype controls. Results shown are representative of three separate experiments. FIG. 3. […] Results are expressed as the mean value±SD. […] Bars indicate mean fold increase±SD mRNA expression level of the indicated gene relative the housekeeping gene GAPDH and normalized to untreated AMP cutlures. (D) Supernatants from allo-MLR/AMP co-cultures inhibit MLR lymphocyte proliferation. […] Cell proliferation was analyzed by ^3H-thymidine incorporation during the last 18 h of a 5 day culture. Results are expressed as the mean percent alloproliferation inhibition of quadruplicate cultures. […]

COc1ccc2c(c1)c(CC(=O)O)c(C)n2C(=O)c1ccc(Cl)cc1 [indomethacin]
allo T-cell proliferation: significantly inhibit
